Values quoted from earlier work in patent US20140187520A1, “STABLE INJECTABLE PHARMACEUTICAL COMPOSITION OF VITAMIN D RECEPTOR AGONIST AND PROCESS FOR PREPARATION THEREOF” (PHARMATHEN S.A., priority 2012, published 2014).

C[C@H](/C=C/[C@H](C)C(C)(C)O)[C@H]1CC[C@H]2/C(=C/C=C3C[C@@H](O)C[C@H](O)C3)CCC[C@]12C [paricalcitol, 19-nor-1α,3β,25-trihydroxy-9,10-secoergosta-5(Z),7(E), 22(E)-triene]
solubility in alcohol (alcohol): soluble | solubility in water (water): insoluble
